Reference: US20110152166A1, “METHOD OF MODULATION OF PROTEIN PHOSPHORYLATION-DEPENDENT CONFORMATIONAL TRANSITIONS WITH LOW MOLECULAR WEIGHT COMPOUNDS” (priority 2006, published 2011)
Where two headings read alike, the source gives them in different places. Square brackets hold non-standard residues; d marks the D form. Ends that are not written are not given here. pS = N[C@@H](COP(=O)(O)O)C(=O)O

Key:
GST-PDK1 wt = biological target: T1, GST-PDK1 wt (Homo sapiens, UniProt O15530); test: PDK1 activity assay with T308tide; assay type: biochemical; settings: for PDK1 (%) activity: 1% DMSO = 100%; for activation of PDK1 (in words): PDK1 wild type
T1 construct: different protein constructs, comprising the full length protein or the catalytic domain alone; made in house; host or cells: HEK293 cells (pEBG-2T-PDK1)
T1 sequence (O15530 1-556): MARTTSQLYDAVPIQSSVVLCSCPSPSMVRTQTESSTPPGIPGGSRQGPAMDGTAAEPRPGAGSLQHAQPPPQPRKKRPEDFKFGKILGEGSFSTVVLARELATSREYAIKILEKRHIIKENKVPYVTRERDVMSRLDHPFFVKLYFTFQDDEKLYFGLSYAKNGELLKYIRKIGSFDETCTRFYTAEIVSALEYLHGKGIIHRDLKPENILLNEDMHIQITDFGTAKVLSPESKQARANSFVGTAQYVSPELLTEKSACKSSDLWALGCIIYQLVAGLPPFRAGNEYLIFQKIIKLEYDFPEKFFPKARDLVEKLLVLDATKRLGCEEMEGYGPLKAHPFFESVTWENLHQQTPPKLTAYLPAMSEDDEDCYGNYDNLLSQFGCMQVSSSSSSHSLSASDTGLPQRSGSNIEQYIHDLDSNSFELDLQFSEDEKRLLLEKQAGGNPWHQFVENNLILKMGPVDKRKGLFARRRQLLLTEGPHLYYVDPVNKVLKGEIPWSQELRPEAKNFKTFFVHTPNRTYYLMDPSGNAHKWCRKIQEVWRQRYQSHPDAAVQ
Description: Protein kinase activity tests were performed essentially as previously described (Balendran et al., 2000; Biondi et al., 2000; Biondi et al., 2001). Substrates used were either MBP (for PKCζ or polypeptides (Crosstide for PKB, S6K, SGK and PRK2; T308tide for PDK1, and Kemptide for PKA). PKA (Sigma) was measured in the presence of 100 μM cAMP. Alternatively, assays were performed in a 96 well format, aliquots spotted on p81 phosphocellulose papers (Whatmann), washed in 0.01% phosphoric acid, dried, and then exposed and analysed using Phospholmager technology (Storm, Molecular Dynamics). Activity measurements were performed in duplicates with less than 10% difference between duplicate pairs. Experiments were repeated at least twice, although most of the experiments were repeated multiple times, with similar results.
PDK1 activity assay was performed in a 20 μl mix containing 50 mM Tris-HCl pH 7.5, 0.05 mg/ml BSA, 0.1% β-mercaptoethanol, 10 mM MgCl2, 100 μM [γ^32P]ATP (5-50 cpm/pmol), 0.003% Brij, 150 ng PDK1, and T308tide (from 0.05 to 1 mM). PDK1 specific activity was approximately 5 U/mg (when measured at 1 mM T308tide). The effect of small compounds on PDK1 was repeated with proteins from different purification batches and with different protein constructs, comprising the full length protein or the catalytic domain alone, with similar results. […] This variability may be due to the PIFtide/compound-stimulated autophosphorylation of the activation loop in certain preparations having less than a 1:1 molar phosphorylation stoichiometry at this site.
PDK1 activity was measured at room temperature using a polypeptide substrate derived from the activation loop phosphorylation site of PKB, T308tide (0.1 mM). […] GST-PDK1 wt was purified in numerous occasions and the maximal activation level of different batches varied between 3 and 8 fold activation with PIFtide or compound 1. Variations in the basal activity and fold activation were also observed in mutants. Therefore, comparisons in the maximal level of activation between mutants should be performed with care. The data shown are from an experiment where PIFtide concentrations were tested between 50 nM and 20 µM and compound 1 concentrations were between 5 μM and 200 μM, in triplicate. AC50 and max. activity were estimated by fitting the data to a hyperbola using Kaleidagraph software. One Unit of PDK1 activity was defined as the amount required to catalyse the phosphorylation of 1 nmol of the T308tide in 1 min.

GST-PDK1 1-556 = biological target: T2, GST-PDK1 1-556 (Homo sapiens, UniProt O15530); test: Surface plasmon resonance, GST-PDK1 binding to biotin-PIFtide and displacement by compounds; settings: competition, pre-incubation with PDK1
T2 construct: made in house; host or cells: HEK293
T2 sequence (O15530 1-556): T1 sequence (O15530 1-556)
Description: FIG. 3—Small compounds displace the binding of PDK1 1-556 to the HM peptide derived from its substrate PRK2, PIFtide. Surface plasmon resonance measurements were carried out on a BiaCore system to measure the interaction between GST-PDK1 and biotin-PIFtide coupled to a streptavidin-coated chip. (A) Direct measurement of PDK1 interaction with biotin-PIFtide. PDK1 was injected at the indicated concentrations (nM). For the following competition experiments, PDK1 45 nM was used. (B) PDK1 interaction with biotin-PIFtide was abolished by pre-incubation with PIFtide. […] The data points represent the maximal response units obtained after 30 s injection in the presence of the indicated concentration of compound. In (A) and (B) the spikes at the start and end of injection have been eliminated for clarity.
Binding of PDK1 to PIFtide was analysed by surface plasmon resonance on a BiaCore 3000 system using a streptavidin-coated Sensor chip (SA) and biotin-PIFtide, as previously described (Biondi et al., 2001). Biotin-PIFtide was bound to the chip to a level of 15 to 25 response units in different experiments. GST-PDK1 bound to biotin-PIFtide with an affinity of 90 nM, in good agreement with previous data obtained using the BiaCore system. For interaction-displacement assays, GST-PDK1 (60 nM) was injected (30 μl/min) in a buffer containing 10 mM HEPES pH 7.5, 150 mM NaCl, 0.005% Tween20, 1 mM DTT and 1% DMSO, in the presence or absence of compounds. GST-PDK1 was pre-incubated with compounds for 1 to 10 minutes before injection into the system, with similar results. Experiments were performed at least twice using different biotin-PIFtide coated chips, with similar results obtained on each occasion.

[1] = GST-PDK1 wt, T308tide 0.1 mM, read-out: AC50

Compound	PDK1 (%) activity (GST-PDK1 wt; 20 μM compound) [%]	PDK1 (%) activity (GST-PDK1 wt; 200 μM compound) [%]	AC50 (GST-PDK1 wt; FIG. 2B, read-out: AC50 of PDK1 activation) [µM]	Max. activity (GST-PDK1 wt; GST-PDK1 wt, T308tide 0.1 mM) [U/mg]	AC50 (GST-PDK1 wt; [1]) [µM]	activation of PDK1 (in words) (GST-PDK1 wt)	displacement of PDK1 binding to biotin-PIFtide (in words) (GST-PDK1 1-556)
O=C(O)CSC(CC(=O)c1ccc(Cl)cc1)c1ccccc1 (stereo not drawn) [Compound 1]	234	370	25	1.1 ± 0.07	34 ± 9	activated PDK1	able to disrupt the binding
COC(=O)CSC(CC(=O)c1ccc(Cl)cc1)c1ccccc1 (stereo not drawn) [Compound 2]	109	124	–	–	–	inactive	did not displace the binding significantly
REPRILSEEEQEMFRDFDYIADWC [PIFtide, reference compound]	–	–	–	0.9 ± 0.05	0.11 ± 0.03	–	abolished this interaction
P-HM-RSK: phosphorylated HM polypeptide of RSK: KGAGGGGFRGFS(P)FVA (KGAGGGGFRGF[pS]FVA)	–	–	–	–	–	activated	–
